The experiment has as its target T1, glutaminyl cyclase (QC; human recombinant glutaminyl peptide cyclotransferase) (Homo sapiens, UniProt Q16769).
T1 construct: gene QPCT
The experiment in a line: PGPEP1-coupled fluorescence assay with H-Gln-AMC substrate, recombinant human QC. It counts as biochemical.

pIC50: −log10 of the molar value.

T1 sequence (Q16769 29-361): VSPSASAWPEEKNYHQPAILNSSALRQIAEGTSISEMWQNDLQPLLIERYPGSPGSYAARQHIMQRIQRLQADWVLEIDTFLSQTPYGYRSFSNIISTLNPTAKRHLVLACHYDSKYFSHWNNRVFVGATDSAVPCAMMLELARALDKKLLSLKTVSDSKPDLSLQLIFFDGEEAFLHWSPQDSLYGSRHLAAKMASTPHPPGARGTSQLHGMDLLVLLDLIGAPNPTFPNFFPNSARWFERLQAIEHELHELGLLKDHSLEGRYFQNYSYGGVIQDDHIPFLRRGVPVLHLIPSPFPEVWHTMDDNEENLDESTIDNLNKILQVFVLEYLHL

With `O=C1NC[C@H](c2ccc(OCCCF)cc2)N1c1ccc2[nH]cnc2c1` [compound 8, S-[19F]PB0822], the pIC50 is 7.25.

Usually pIC50 stands for the negative decadic logarithm of the IC50, by convention in mol/L.

The values above are taken from paper PMC11129349, “Synthesis and Evaluation of a Novel PET Radioligand for Imaging Glutaminyl Cyclase Activity as a Biomarker for Detecting Alzheimer’s Disease” (ACS Sensors, 2024).
